How the values were obtained:
Assay in all cases: Test C preemergence
Format in all cases: in vivo
[1] = system: giant foxtail (Setaria faberii); conditions: Setaria faberi, pre-emergence, 336 h, scale 0 to 100, read-out: Plant response rating, Foxtail, Giant
Procedure, shortened: (§1)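 Seeds in loam-sand soil were treated preemergence, and plants at the 1- to 4-leaf stage (2-18 cm) in peat-based medium were sprayed postemergence, with test chemicals in a non-phytotoxic solvent containing surfactant. After 13-15 days in a greenhouse, response was rated visually against controls from 0 (no effect) to 100 (complete control).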

[2] = system: soybean (Glycine max); conditions: Glycine max, pre-emergence, scale 0 to 100, read-out: Plant response rating, Soybean
Procedure, shortened: as §1

[3] = system: lambsquarters (Chenopodium album); conditions: Chenopodium album, pre-emergence, 336 h, scale 0 to 100, read-out: Plant response rating, Lambsquarters
Procedure, shortened: as §1

[4] = system: corn (Zea mays); conditions: Zea mays, pre-emergence, 336 h, scale 0 to 100
Procedure, shortened: as §1

[5] = system: large (Lg) crabgrass (Digitaria sanguinalis); conditions: Digitaria sanguinalis, pre-emergence, 336 h, scale 0 to 100, read-out: Plant response rating, Crabgrass, Large
Procedure, shortened: as §1

[6] = system: velvetleaf (Abutilon theophrasti); conditions: Abutilon theophrasti, pre-emergence, scale 0 to 100, read-out: Plant response rating, Velvetleaf
Procedure, shortened: as §1

[7] = system: galium (catchweed bedstraw, Galium aparine); conditions: Galium, pre-emergence, 336 h, scale 0 to 100, read-out: Plant response rating, Galium
Procedure, shortened: as §1

[8] = system: ragweed (common ragweed, Ambrosia elatior); conditions: Ambrosia artemisiifolia, pre-emergence, 336 h, scale 0 to 100, read-out: Plant response rating, Ragweed
Procedure, shortened: as §1

[9] = system: waterhemp (common waterhemp, Amaranthus rudis); conditions: Amaranthus tuberculatus, pre-emergence, scale 0 to 100, read-out: Plant response rating, Waterhemp
Procedure, shortened: as §1

[10] = system: Italian ryegrass (Lolium multiflorum); conditions: Lolium multiflorum, pre-emergence, 336 h, scale 0 to 100, read-out: Plant response rating, Ryegrass, Italian
Procedure, shortened: as §1

[11] = system: barnyardgrass (Echinochloa crus-galli); conditions: Echinochloa crus-galli, pre-emergence, read-out: Plant response rating, Barnyardgrass
Procedure, shortened: as §1

[12] = system: yellow nutsedge (Cyperus esculentus); conditions: Cyperus, pre-emergence, 336 h, scale 0 to 100, read-out: Plant response rating, Nutsedge, Yellow
Procedure, shortened: as §1

[13] = system: oilseed rape (Brassica napus); conditions: Brassica napus, pre-emergence, scale 0 to 100, read-out: Plant response rating, Oilseed Rape
Procedure, shortened: as §1

[14] = system: blackgrass (Alopecurus myosuroides); conditions: Alopecurus myosuroides, pre-emergence, 336 h, scale 0 to 100, read-out: Plant response rating, Blackgrass
Procedure, shortened: as §1

[15] = system: winter wheat (Triticum aestivum); conditions: Triticum aestivum, pre-emergence, 336 h, scale 0 to 100, read-out: Plant response rating, Wheat
Procedure, shortened: as §1

N#Cc1cccc(Oc2ncc(C(F)(F)F)cn2)c1Oc1ncc(Cl)cn1 [Compound 39, 2-[(5-chloro-2-pyrimidinyl)oxy]-3-[[5-(trifluoromethyl)-2-pyrimidinyl]oxy]-benzonitrile]
pest or weed control at 31 g/ha ([1]; 31 g ai/ha, preemergence): 95% | pest or weed control at 62 g/ha ([1]; 62 g ai/ha, preemergence): 100% | pest or weed control at 125 g/ha ([1]; 125 g ai/ha, preemergence): 100% | pest or weed control at 16 g/ha ([1]; Preemergence, 16 g ai/ha): 55% | plant injury at 31 g/ha ([2]; 31 g ai/ha, preemergence): 65% | plant injury at 62 g/ha ([2]; 62 g ai/ha, preemergence): 85% | plant injury at 125 g/ha ([2]; 125 g ai/ha, preemergence): 95% | plant injury at 16 g/ha ([2]; Preemergence, 16 g ai/ha): 35% | pest or weed control at 31 g/ha ([3]; 31 g ai/ha, preemergence): 90% | pest or weed control at 62 g/ha ([3]; 62 g ai/ha, preemergence): 98% | pest or weed control at 125 g/ha ([3]; 125 g ai/ha, preemergence): 95% | pest or weed control at 16 g/ha ([3]; Preemergence, 16 g ai/ha): 60% | Corn plant response rating (crop injury, 0 = no effect, 100 = complete kill) at 31 g/ha ([4]; 31 g ai/ha, preemergence): 40% | Corn plant response rating (crop injury, 0 = no effect, 100 = complete kill) at 62 g/ha ([4]; 62 g ai/ha, preemergence): 45% | Corn plant response rating (crop injury, 0 = no effect, 100 = complete kill) at 125 g/ha ([4]; 125 g ai/ha, preemergence): 85% | Corn plant response rating (crop injury, 0 = no effect, 100 = complete kill) at 16 g/ha ([4]; Preemergence, 16 g ai/ha): 5% | pest or weed control at 31 g/ha ([5]; 31 g ai/ha, preemergence): 100% | pest or weed control at 62 g/ha ([5]; 62 g ai/ha, preemergence): 100% | pest or weed control at 125 g/ha ([5]; 125 g ai/ha, preemergence): 100% | pest or weed control at 16 g/ha ([5]; Preemergence, 16 g ai/ha): 100% | pest or weed control at 31 g/ha ([6]; 31 g ai/ha, preemergence): 75% | pest or weed control at 62 g/ha ([6]; 62 g ai/ha, preemergence): 100% | pest or weed control at 125 g/ha ([6]; 125 g ai/ha, preemergence): 100% | pest or weed control at 16 g/ha ([6]; Preemergence, 16 g ai/ha): 40% | pest or weed control at 31 g/ha ([7]; 31 g ai/ha, preemergence): 90% | pest or weed control at 62 g/ha ([7]; 62 g ai/ha, preemergence): 85% | pest or weed control at 125 g/ha ([7]; 125 g ai/ha, preemergence): 100% | pest or weed control at 16 g/ha ([7]; Preemergence, 16 g ai/ha): 85% | pest or weed control at 31 g/ha ([8]; 31 g ai/ha, preemergence): 40% | pest or weed control at 62 g/ha ([8]; 62 g ai/ha, preemergence): 65% | pest or weed control at 125 g/ha ([8]; 125 g ai/ha, preemergence): 85% | pest or weed control at 16 g/ha ([8]; Preemergence, 16 g ai/ha): 15% | pest or weed control at 31 g/ha ([9]; 31 g ai/ha, preemergence): 100% | pest or weed control at 62 g/ha ([9]; 62 g ai/ha, preemergence): 100% | pest or weed control at 125 g/ha ([9]; 125 g ai/ha, preemergence): 100% | pest or weed control at 16 g/ha ([9]; Preemergence, 16 g ai/ha): 100% | pest or weed control at 31 g/ha ([10]; 31 g ai/ha, preemergence): 20% | pest or weed control at 62 g/ha ([10]; 62 g ai/ha, preemergence): 75% | pest or weed control at 125 g/ha ([10]; 125 g ai/ha, preemergence): 90% | pest or weed control at 16 g/ha ([10]; Preemergence, 16 g ai/ha): 0% | pest or weed control at 31 g/ha ([11]; 31 g ai/ha, preemergence, scale 0 to 100): 95% | pest or weed control at 62 g/ha ([11]; 62 g ai/ha, preemergence, scale 0 to 100): 95% | pest or weed control at 125 g/ha ([11]; 125 g ai/ha, preemergence, scale 0 to 100): 100% | pest or weed control at 16 g/ha ([11]; Preemergence, 16 g ai/ha, scale 0 to 100 (0 no effect, 100 complete control)): 65% | pest or weed control at 31 g/ha ([12]; 31 g ai/ha, preemergence): 20% | pest or weed control at 62 g/ha ([12]; 62 g ai/ha, preemergence): 85% | pest or weed control at 125 g/ha ([12]; 125 g ai/ha, preemergence): 85% | pest or weed control at 16 g/ha ([12]; Preemergence, 16 g ai/ha): 0% | plant injury at 31 g/ha ([13]; 31 g ai/ha, preemergence): 90% | plant injury at 62 g/ha ([13]; 62 g ai/ha, preemergence): 100% | plant injury at 125 g/ha ([13]; 125 g ai/ha, preemergence): 100% | plant injury at 16 g/ha ([13]; Preemergence, 16 g ai/ha): 80% | pest or weed control at 31 g/ha ([14]; 31 g ai/ha, preemergence): 50% | pest or weed control at 62 g/ha ([14]; 62 g ai/ha, preemergence): 90% | pest or weed control at 125 g/ha ([14]; 125 g ai/ha, preemergence): 90% | pest or weed control at 16 g/ha ([14]; Preemergence, 16 g ai/ha): 0% | plant injury at 31 g/ha ([15]; 31 g ai/ha, preemergence): 0% | plant injury at 62 g/ha ([15]; 62 g ai/ha, preemergence): 30% | plant injury at 125 g/ha ([15]; 125 g ai/ha, preemergence): 60% | plant injury at 16 g/ha ([15]; Preemergence, 16 g ai/ha): 0%
